The values below are quoted from earlier work in patent US6184365A, “Anthracycline derivatives having 4-amino-2,4,6-trideoxy-2 fluoro-α-L-talopyranosyl group” (priority 1996, dated 2001).

Data set [1] has as its system various human cancer cells. The following applies: in vitro; cited from earlier work.
Data set [2] concerns mouse Leukemia L-1210 cell. The following applies: in vivo, cited from earlier work.
The conditions of data set [3]: earlier derivatives; cited from earlier work.

Consider `COc1cccc2c1C(=O)c1c(O)c3c(c(O)c1C2=O)C[C@@](O)(C(=O)CO)C[C@@H]3O[C@@H]1O[C@@H](C)[C@H](N)[C@@H](O)[C@H]1F` [compound of the formula (D-b), 7-O-(4-amino-2,4,6-trideoxy-2-fluoro-α-L-mannopyranosyl)adriamycinone], for which the “anticancer activity against various human cancer cells compared with adriamycin” value in data set [1] was “substantially as high as those of adriamycin”. In addition, the “antitumor activity against mouse Leukemia L-1210 cell over adriamycin” value in data set [2] (low dosages) is “remarkably improved antitumor activity”. The “antitumor activity against experimental tumors in animals” value in data set [2] is reported as “remarkably high antitumor activity”. Besides, in data set [3], the “solubility in water” value is “soluble in water”.
